Data on 13 compounds can be found in patent US20200332222A1, “MUSK COMPOSITIONS AND METHODS OF USE THEREOF” (TAKASAGO INTERNATIONAL CORPORATION (USA), priority 2015, published 2020).

For series [1], the system named is salivary cortisol. Description: Salivary cortisol before vs after timed ten minute mathematical/word stress test, fragrance inhaled. It is filed as in vivo, human. To be noted: for Cortisol Data (change before vs after stress test): Table 6, about 10-15 panelists, DPG control −10.9%. An excerpt:
Salivary cortisol is widely used as a biomarker for stress. The purpose of this study was to investigate the influence of individual fragrance compounds, particularly musk compounds, on a subject's cortisol levels before and after exposure to a stressor. The subject sniffed each musk compound, then was exposed to a stressor. The goal was to identify one or more specific musk compounds which caused the least amount of change in cortisol levels or decreased a subject's cortisol levels compared to before administration, thereby reducing or inhibiting a response to stress stimuli. […]
Stress was induced in a number of panelists (about 10-15) for each tested compound using a timed ten minute mathematical/word test in a small group competition setting. The test compound was introduced at intervals during the stress test.
Saliva was collected before and immediately after the stress test. Saliva samples were assayed for salivary cortisol levels and salivary alpha-amylase activity using a commercially available kinetic reaction assay kit (Salimetrics®, State College, Pa.). […]
(§1) Saliva was collected before (Pre) and immediately after (Post) the stress test. Saliva samples were assayed for salivary alpha-amylase using a commercially available kinetic reaction assay kit and for salivary cortisol using a highly sensitive enzyme immunoassay kit (Salimetrics®, State College, Pa.).

Series [2] relates to salivary alpha-amylase. The series can be described thus: Salivary alpha-amylase before vs after timed ten minute mathematical/word stress test, fragrance inhaled. It is filed as in vivo, human. To be noted: for Salivary Amylase Data (change before vs after stress test): Table 6, about 10-15 panelists, DPG control +60.7%; for Percent change in salivary alpha-amylase: solvent only control 66.8%. As to the method:
Fourteen female panelists age 30-45 participated in this study. Stress was induced using a timed ten minute mathematical/word test in a small group competition setting. Fragrance was introduced at intervals during the stress test. Saliva was collected before (Pre) and immediately after (Post) the stress test. Saliva samples were assayed for salivary alpha-amylase using a commercially available kinetic reaction assay kit and for salivary cortisol using a highly sensitive enzyme immunoassay kit (Salimetrics®, State College, Pa.). […]
as §1

Series [3] in a line: Chassis-air partition coefficient of accord components. In kind it is physicochemical.
Experiment in series [4]: as above
It is filed as physicochemical. To be noted: BC-162 shampoo chassis. From the text: The chassis-air partition coefficient can be measured for materials in various chassis.
Ki,chassis-air is the chassis-air partition coefficient for component i in the fragrance formula
Ci, chassis is the concentration of component i in the product formula chassis in molarity, M
Ci, air is the concentration of component i in the headspace air in equilibrium with the formula chassis in molarity, M
For the “Example Accord” in the BC-162 shampoo chassis components, the log chassis-air partition coefficients are as listed in Table 11.

Series [5] concerns brain waves. Description: Contingent Negative Variant (CNV) analysis of brain waves recorded by EEG. It is filed as in vivo, human. To be noted: Example 9; Musk T 10% by weight in DPG. The method, then:
Contingent Negative Variant (CNV) analysis was conducted on brain waves recorded from subjects using EEG (electroencephalography) in the presence of the musk fragrance compound. CNV analysis is summarized in Okazaki et al., Proceedings of the 13th International Congress of Flavours, Fragrances and Essential Oils, 15-19 Oct. 1995.

Setting [6] is: Table 4, macrocyclic musks, 12-14 female panelists age 30-45, before vs immediately after stress test.
Setting [7] is: Table 5, non-macrocyclic musks, methods as Example 6.

Regarding `CC(=O)C(C)CC[C@H]1CCC(C)C1(C)C` (stereo partly drawn) [3-methyl-5-((1R)-2,2,3-trimethylcyclopentyl)pentan-2-one], the “Cortisol Data (change before vs after stress test)” value in series [1] is listed as −16.5%. In series [2], the “Salivary Amylase Data (change before vs after stress test)” value is recorded as −6.1%.

In the case of `O=C1CCCC=CCCCCCCCCCC1` [Ambretone ®, 5-Cyclohexadecen-1-one], the “Percent change in salivary alpha-amylase” value in series [2] (setting [6]) was 36.9%.

As for `O=C1CCCCC=CCCCCCCCCCO1` [Ambrettolide, 17-oxacycloheptadec-6-en-1-one], the “Cortisol Data (change before vs after stress test)” value in series [1] is −11.25%. The “Percent change in salivary alpha-amylase” value in series [2] (setting [6]) worked out at 13.1%. For the same compound, the “Salivary Amylase Data (change before vs after stress test)” value in series [2] was “+13.16%”.

For the compound `O=C1CCCCCCCCCCCCCCO1` [EXALTOLIDE, 16-oxacyclohexadecan-1-one], the “logK, APDO Soft Solid (log chassis-air partition coefficient)” value (“logK, APDO Soft Solid” below) in series [3] is given as 6.729. Besides, the “logK, BC162 (log chassis-air partition coefficient)” value (shortened to “logK, BC162”) in series [4] is on record as 5.356.

Take `O=C1CCCCCCCCC/C=C/CCCO1` [Habanolide, (12E)-1-oxacyclohexadec-12-en-2-one]: the “logK, APDO Soft Solid” value in series [3] worked out at 6.693. The “Cortisol Data (change before vs after stress test)” value in series [1] is given as −20.6%. Further, in series [4], the “logK, BC162” value was determined as 5.505. In addition, in series [2] (setting [6]), the “Percent change in salivary alpha-amylase” value is listed as 4.7%. Besides, in series [2], the “Salivary Amylase Data (change before vs after stress test)” value was “+4.67%”.

For `CC1=CCC(C/C=C(\C)CO)C1(C)C` (stereo not shown) [Hindinol, (E)-2-methyl-4-(2,2,3-trimethyl-1-cyclopent-3-enyl)but-2-en-1-ol], in series [1], the “Cortisol Data (change before vs after stress test)” value was −25.0%. In addition, the “Percent change in salivary alpha-amylase” value in series [2] (setting [7]) is given as 82.3%. In series [2], the “Salivary Amylase Data (change before vs after stress test)” value was “+82.3%”.

As to `CC1CCCCCCCCCCCCC(=O)C1` [L-Muscone], in series [1], the “Cortisol Data (change before vs after stress test)” value was “+25.6%”. Also, the “Salivary Amylase Data (change before vs after stress test)” value in series [2] is “+14.5%”.

Take `O=C1CCCCCCCCCOCCCCCO1` [MUSK RI, 11-Oxahexadecan-16-olide]: the “logK, APDO Soft Solid” value in series [3] came to 6.970. Also, in series [4], the “logK, BC162” value is reported as 5.780.

Regarding `O=C1CCCCCCCCCCCC(=O)OCCO1` [Musk T ®, ethylene brassylate], the “logK, APDO Soft Solid” value in series [3] is 7.306. Also, the “Pre vs. Post salivary cortisol level, decrease in response to stress test” value in series [1] (Example 8, FIG. 4, Musk T 2.5% by weight in fragrance (floral fragrance/Musk T 75/25 admixture, 10% in DPG), DPG alone increased 24%) came to 8%. Besides, the “Pre vs. Post salivary cortisol level, increase in response to stress test” value in series [1] (Example 9, FIG. 6, Musk T 10% by weight in DPG, DPG alone 41%) was determined as 10%. Besides, in series [4], the “logK, BC162” value worked out at 6.345. The “increase in the level of relaxation, CNV analysis of brain waves” value in series [5] is 32.5%. For the same compound, the “Pre vs. Post salivary alpha-amylase level, increase in response to stress test” value amounted to 38% in series [2] (Example 8, FIG. 3, Musk T 2.5% by weight in fragrance (floral fragrance/Musk T 75/25 admixture, 10% in DPG), DPG alone 120%) and 47% in series [2] (Example 9, FIG. 5, Musk T 10% by weight in DPG, DPG alone 161%). Besides, the “Percent change in salivary alpha-amylase” value in series [2] (setting [6]) is 47.1%.

In the case of `CC(=O)CCc1ccc(O)cc1` [PARA HYDROXY PHENYL BUTANONE], the “logK, APDO Soft Solid” value in series [3] was found to be 6.135. In addition, in series [4], the “logK, BC162” value was found to be 7.809.

Turning to `CC(=O)c1cc2c(cc1C)C(C)(C)C(C)C2(C)C` (stereo not shown) [Phantolide, 1-(1,1,2,3,3,6-hexamethyl-2H-inden-5-yl)ethanone], in series [1], the “Cortisol Data (change before vs after stress test)” value was −12.3%. In addition, in series [2], the “Salivary Amylase Data (change before vs after stress test)” value is −19.2%.

For the compound `CC(=O)OC(C)C1CCCC(C)(C)C1` (stereo not shown) [Rosamusk, 1-(3,3-dimethylcyclohexyl)ethyl acetate], in series [1] (Example 10, FIG. 8, Rosamusk 10% by weight in DPG, DPG alone 25%), the “Pre vs. Post salivary cortisol level, increase in response to stress test” value was determined as 7%. Moreover, the “Cortisol Data (change before vs after stress test)” value in series [1] is “+6.68%”. For the same compound, in series [2] (Example 10, FIG. 7, Rosamusk 10% by weight in DPG, DPG alone increased 33%), the “Pre vs. Post salivary alpha-amylase level, decrease in response to stress test” value amounted to 15%. Besides, the “Salivary Amylase Data (change before vs after stress test)” value in series [2] is recorded as −15.2%.

Turning to `CCOC(=O)[C@@H]1[C@@H](C)CCCC1(C)C` [ethyl (1R,6S)-2,2,6-trimethylcyclohexane-1-carboxylate], in series [2] (setting [7]), the “Percent change in salivary alpha-amylase” value worked out at 70.7%.
